According to PMC4220016, “The binding characteristics and orientation of a novel radioligand with distinct properties at 5-HT3A and 5-HT3AB receptors” (Neuropharmacology, 2014):

Columns and labels:
Assay in all cases: Saturation binding of [^3H]VUF10166 at 5-HT3A receptor mutant
5-HT3A receptor D189C = molecular target: T1, 5-HT3A receptor D189C (Homo sapiens, UniProt P46098, D184C); settings: Loop B, read-out: Kd (nM) Mean ± SEM
T1 construct: expressed in transfected cells; host or cells: HEK 293
Procedure: (§1) Mutagenesis was performed using the QuikChange method (Agilent Technologies Inc., California, USA) on human 5-HT3A cDNA (accession number: P46098) cloned into pcDNA3.1 (Invitrogen, Paisley, UK). Cysteine residues were substituted for amino acids throughout each of the binding loops A–E (Fig. 1). To facilitate comparisons with previous work, we use the numbering of the equivalent residues in the mouse 5-HT3A subunit; for human numbering 5 should be subtracted from each residue number.
(§2) All data were analysed using GraphPad Prism 4.03.

5-HT3A receptor E129C = molecular target: T2, 5-HT3A receptor E129C (Homo sapiens, UniProt P46098, E124C); settings: Loop A, read-out: Kd (nM) Mean ± SEM
T2 construct: expressed in transfected cells; host or cells: HEK 293
Procedure: as §1, §2

5-HT3A receptor E236C = molecular target: T3, 5-HT3A receptor E236C (Homo sapiens, UniProt P46098, E231C); settings: Loop C, read-out: Kd (nM) Mean ± SEM
T3 construct: expressed in transfected cells; host or cells: HEK 293
Procedure: as §1, §2

5-HT3A receptor H185C = molecular target: T4, 5-HT3A receptor H185C (Homo sapiens, UniProt P46098, H180C); settings: H185C, Loop B; read-out: Kd (nM) Mean ± SEM
T4 construct: expressed in transfected cells; host or cells: HEK 293
Procedure: as §1, §2

5-HT3A receptor I139C = molecular target: T5, 5-HT3A receptor I139C (Homo sapiens, UniProt P46098, I134C); settings: I139C, Loop E; read-out: Kd (nM) Mean ± SEM
T5 construct: expressed in transfected cells; host or cells: HEK 293
Procedure: as §1, §2

5-HT3A receptor I71C = molecular target: T6, 5-HT3A receptor I71C (Homo sapiens, UniProt P46098, I66C); settings: I71C; read-out: Kd (nM) Mean ± SEM
T6 construct: expressed in transfected cells; host or cells: HEK 293
Procedure: as §1, §2

5-HT3A receptor K112C = molecular target: T7, 5-HT3A receptor K112C (Homo sapiens, UniProt P46098, K107C); settings: K112C; read-out: Kd (nM) Mean ± SEM
T7 construct: expressed in transfected cells; host or cells: HEK 293
Procedure: as §1, §2

5-HT3A receptor N128C = molecular target: T8, 5-HT3A receptor N128C (Homo sapiens, UniProt P46098, N123C); settings: N128C, Loop A; read-out: Kd (nM) Mean ± SEM
T8 construct: expressed in transfected cells; host or cells: HEK 293
Procedure: as §1, §2

5-HT3A receptor N232C = molecular target: T9, 5-HT3A receptor N232C (Homo sapiens, UniProt P46098, N227C); settings: N232C, Loop C; read-out: Kd (nM) Mean ± SEM
T9 construct: expressed in transfected cells; host or cells: HEK 293
Procedure: as §1, §2

5-HT3A receptor Q151C = molecular target: T10, 5-HT3A receptor Q151C (Homo sapiens, UniProt P46098, Q146C); settings: Q151C, Loop E; read-out: Kd (nM) Mean ± SEM
T10 construct: expressed in transfected cells; host or cells: HEK 293
Procedure: as §1, §2

5-HT3A receptor R145C = molecular target: T11, 5-HT3A receptor R145C (Homo sapiens, UniProt P46098, R140C); settings: R145C, Loop E; read-out: Kd (nM) Mean ± SEM
T11 construct: expressed in transfected cells; host or cells: HEK 293
Procedure: as §1, §2

5-HT3A receptor R58C = molecular target: T12, 5-HT3A receptor R58C (Homo sapiens, UniProt P46098, R53C); settings: read-out: Kd (nM) Mean ± SEM
T12 construct: expressed in transfected cells; host or cells: HEK 293
Procedure: as §1, §2

5-HT3A receptor R92C = molecular target: T13, 5-HT3A receptor R92C (Homo sapiens, UniProt P46098, R87C); settings: R92C, Loop D; read-out: Kd (nM) Mean ± SEM
T13 construct: expressed in transfected cells; host or cells: HEK 293
Procedure: as §1, §2

5-HT3A receptor S114C = molecular target: T14, 5-HT3A receptor S114C (Homo sapiens, UniProt P46098, S109C); settings: S114C; read-out: Kd (nM) Mean ± SEM
T14 construct: expressed in transfected cells; host or cells: HEK 293
Procedure: as §1, §2

5-HT3A receptor T179C = molecular target: T15, 5-HT3A receptor T179C (Homo sapiens, UniProt P46098, T174C); settings: Loop B, read-out: Kd (nM) Mean ± SEM
T15 construct: expressed in transfected cells; host or cells: HEK 293
Procedure: as §1, §2

5-HT3A receptor T181C = molecular target: T16, 5-HT3A receptor T181C (Homo sapiens, UniProt P46098, T176C/T181C); settings: Loop B, read-out: Kd (nM) Mean ± SEM
T16 construct: expressed in transfected cells; host or cells: HEK 293
Procedure: as §1, §2

5-HT3A receptor W183C = molecular target: T17, 5-HT3A receptor W183C (Homo sapiens, UniProt P46098, W178C); settings: Loop B, read-out: Kd (nM) Mean ± SEM
T17 construct: expressed in transfected cells; host or cells: HEK 293
Procedure: as §1, §2

5-HT3A receptor W90C = molecular target: T18, 5-HT3A receptor W90C (Homo sapiens, UniProt P46098, W85C); settings: Loop D, read-out: Kd (nM) Mean ± SEM
T18 construct: expressed in transfected cells; host or cells: HEK 293
Procedure: as §1, §2

5-HT3A receptor Y141C = molecular target: T19, 5-HT3A receptor Y141C (Homo sapiens, UniProt P46098, Y136C); settings: Loop E, read-out: Kd (nM) Mean ± SEM
T19 construct: expressed in transfected cells; host or cells: HEK 293
Procedure: as §1, §2

5-HT3A receptor Y143C = molecular target: T20, 5-HT3A receptor Y143C (Homo sapiens, UniProt P46098, Y138C); settings: Loop E, read-out: Kd (nM) Mean ± SEM
T20 construct: expressed in transfected cells; host or cells: HEK 293
Procedure: as §1, §2

5-HT3A receptor Y234C = molecular target: T21, 5-HT3A receptor Y234C (Homo sapiens, UniProt P46098, Y229C); settings: Loop C, read-out: Kd (nM) Mean ± SEM
T21 construct: expressed in transfected cells; host or cells: HEK 293
Procedure: as §1, §2

T17 sequence (P46098 24-478 W178C): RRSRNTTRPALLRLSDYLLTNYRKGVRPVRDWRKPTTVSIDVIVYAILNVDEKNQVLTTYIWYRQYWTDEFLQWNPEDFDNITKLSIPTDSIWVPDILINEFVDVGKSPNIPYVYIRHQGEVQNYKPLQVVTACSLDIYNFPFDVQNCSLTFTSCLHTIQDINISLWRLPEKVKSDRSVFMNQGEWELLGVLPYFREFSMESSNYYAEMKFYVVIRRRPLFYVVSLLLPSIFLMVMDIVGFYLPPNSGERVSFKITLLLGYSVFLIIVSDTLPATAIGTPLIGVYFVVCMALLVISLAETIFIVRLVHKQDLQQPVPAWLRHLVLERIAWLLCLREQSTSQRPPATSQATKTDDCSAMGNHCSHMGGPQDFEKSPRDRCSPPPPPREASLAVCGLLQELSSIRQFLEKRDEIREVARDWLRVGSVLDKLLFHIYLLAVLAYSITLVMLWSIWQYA
T2 sequence (P46098 24-478 E124C): as the sequence (P46098 24-478 W178C) above, with E101C, C155W counted along it
T19 sequence (P46098 24-478 Y136C): as the sequence (P46098 24-478 W178C) above, with Y113C, C155W counted along it
T15 sequence (P46098 24-478 T174C): as the sequence (P46098 24-478 W178C) above, with T151C, C155W counted along it
T10 sequence (P46098 24-478 Q146C): as the sequence (P46098 24-478 W178C) above, with Q123C, C155W counted along it
T3 sequence (P46098 24-478 E231C): as the sequence (P46098 24-478 W178C) above, with C155W, E208C counted along it
T16 sequence (P46098 24-478 T176C/T181C): as the sequence (P46098 24-478 W178C) above, with T153C, C155W, T158C counted along it
T11 sequence (P46098 24-478 R140C): as the sequence (P46098 24-478 W178C) above, with R117C, C155W counted along it
T13 sequence (P46098 24-478 R87C): as the sequence (P46098 24-478 W178C) above, with R64C, C155W counted along it
T9 sequence (P46098 24-478 N227C): as the sequence (P46098 24-478 W178C) above, with C155W, N204C counted along it
T7 sequence (P46098 24-478 K107C): as the sequence (P46098 24-478 W178C) above, with K84C, C155W counted along it
T20 sequence (P46098 24-478 Y138C): as the sequence (P46098 24-478 W178C) above, with Y115C, C155W counted along it
T8 sequence (P46098 24-478 N123C): as the sequence (P46098 24-478 W178C) above, with N100C, C155W counted along it
T14 sequence (P46098 24-478 S109C): as the sequence (P46098 24-478 W178C) above, with S86C, C155W counted along it
T6 sequence (P46098 24-478 I66C): as the sequence (P46098 24-478 W178C) above, with I43C, C155W counted along it
T18 sequence (P46098 24-478 W85C): as the sequence (P46098 24-478 W178C) above, with W62C, C155W counted along it
T5 sequence (P46098 24-478 I134C): as the sequence (P46098 24-478 W178C) above, with I111C, C155W counted along it
T12 sequence (P46098 24-478 R53C): as the sequence (P46098 24-478 W178C) above, with R30C, C155W counted along it
T4 sequence (P46098 24-478 H180C): as the sequence (P46098 24-478 W178C) above, with C155W, H157C counted along it
T21 sequence (P46098 24-478 Y229C): as the sequence (P46098 24-478 W178C) above, with C155W, Y206C counted along it
T1 sequence (P46098 24-478 D184C): as the sequence (P46098 24-478 W178C) above, with C155W, D161C counted along it

SMILES: CN1CCN(c2nc3ccccc3nc2Cl)CC1 [[^3H]VUF10166] [2-chloro-3-(4-[^3H]methylpiperazin-1-yl)quinoxaline]
- Kd (5-HT3A receptor D189C): > 10 nM
- Kd (5-HT3A receptor E129C): > 10 nM
- Kd (5-HT3A receptor E236C): > 10 nM
- Kd (5-HT3A receptor H185C): 0.96 ± 0.39 nM
- Kd (5-HT3A receptor I139C): 1.55 ± 0.15 nM
- Kd (5-HT3A receptor I71C): 0.23 ± 0.05 nM
- Kd (5-HT3A receptor K112C): 0.13 ± 0.03 nM
- Kd (5-HT3A receptor N128C): 0.7 ± 0.1 nM
- Kd (5-HT3A receptor N232C): 1.9 ± 0.36 nM
- Kd (5-HT3A receptor Q151C): 1.82 ± 0.19 nM
- Kd (5-HT3A receptor R145C): 0.96 ± 0.35 nM
- Kd (5-HT3A receptor R58C): > 10 nM
- Kd (5-HT3A receptor R92C): 0.88 ± 0.19 nM
- Kd (5-HT3A receptor S114C): 0.21 ± 0.09 nM
- Kd (5-HT3A receptor T179C): > 10 nM
- Kd (5-HT3A receptor T181C): > 10 nM
- Kd (5-HT3A receptor W183C): > 10 nM
- Kd (5-HT3A receptor W90C): > 10 nM
- Kd (5-HT3A receptor Y141C): > 10 nM
- Kd (5-HT3A receptor Y143C): > 10 nM
- Kd (5-HT3A receptor Y234C): > 10 nM
